The assay concerns the target T1, recombinant guanylate cyclase reporter cell line (Rattus norvegicus, UniProt P20595).
T1 construct: expressed in transfected cells
T1 sequence (P20595 1-619): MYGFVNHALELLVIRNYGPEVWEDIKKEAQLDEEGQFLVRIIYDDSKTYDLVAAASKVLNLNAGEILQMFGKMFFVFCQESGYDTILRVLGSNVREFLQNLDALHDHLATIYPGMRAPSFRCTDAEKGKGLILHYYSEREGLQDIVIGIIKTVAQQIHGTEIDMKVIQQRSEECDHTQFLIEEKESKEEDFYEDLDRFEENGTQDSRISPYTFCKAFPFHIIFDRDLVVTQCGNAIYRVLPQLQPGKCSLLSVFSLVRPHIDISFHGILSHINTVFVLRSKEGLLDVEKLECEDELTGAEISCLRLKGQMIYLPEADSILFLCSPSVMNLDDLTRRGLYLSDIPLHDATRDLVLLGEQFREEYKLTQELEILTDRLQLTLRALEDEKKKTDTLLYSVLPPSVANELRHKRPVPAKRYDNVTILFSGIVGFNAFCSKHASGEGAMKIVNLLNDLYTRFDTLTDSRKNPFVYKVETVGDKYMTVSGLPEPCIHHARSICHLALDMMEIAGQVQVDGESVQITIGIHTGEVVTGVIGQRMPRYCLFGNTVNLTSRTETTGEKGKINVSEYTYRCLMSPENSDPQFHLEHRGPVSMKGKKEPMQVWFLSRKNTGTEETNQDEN
T1 sequence (P19686 1-690 partner): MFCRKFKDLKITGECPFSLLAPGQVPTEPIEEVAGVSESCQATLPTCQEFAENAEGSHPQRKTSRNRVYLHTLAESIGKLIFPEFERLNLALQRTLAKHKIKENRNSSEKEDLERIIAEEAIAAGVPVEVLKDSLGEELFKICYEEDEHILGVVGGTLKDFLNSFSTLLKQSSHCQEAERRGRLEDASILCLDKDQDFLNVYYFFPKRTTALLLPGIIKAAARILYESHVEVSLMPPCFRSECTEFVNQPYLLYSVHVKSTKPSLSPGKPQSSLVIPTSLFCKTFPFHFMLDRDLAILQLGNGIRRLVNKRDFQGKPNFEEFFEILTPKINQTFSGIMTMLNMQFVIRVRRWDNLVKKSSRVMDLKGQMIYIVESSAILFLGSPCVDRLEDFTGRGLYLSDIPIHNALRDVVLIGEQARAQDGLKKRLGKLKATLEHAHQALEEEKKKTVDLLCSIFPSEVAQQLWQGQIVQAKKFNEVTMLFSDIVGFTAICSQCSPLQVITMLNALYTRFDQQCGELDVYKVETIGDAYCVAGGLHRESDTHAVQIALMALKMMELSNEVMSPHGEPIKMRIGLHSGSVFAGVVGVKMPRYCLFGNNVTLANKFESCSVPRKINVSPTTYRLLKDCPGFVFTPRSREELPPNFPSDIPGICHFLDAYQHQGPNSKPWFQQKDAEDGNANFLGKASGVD
As to the kind of experiment: Effect on a recombinant guanylate cyclase reporter cell line. The conditions noted are these: for EC50: half maximal effective concentration; for MEC: minimum effective concentration. In kind it is cell-based. How it is done: B-1. Effect on a Recombinant Guanylate Cyclase Reporter Cell Line
The cellular activity of the compounds according to the invention was determined using a recombinant guanylate cyclase reporter cell line, as described in F. Wunder et al., Anal. Biochem. 339, 104-112 (2005).

Structures are written as SMILES. Structures can show the parent of a compound that is named as a salt. Some results are limits rather than exact numbers.

As usually defined, the EC50 is the concentration at which the effect is half-maximal. Turning to `O=C(O)c1cnn(C2CCCN(c3cc(Cl)ccc3-c3ccc(N4CCN(CCOC(F)(F)F)CC4)cc3)C2)c1C(F)F` (single isomer, unassigned; enantiomer 2) [Example 26, 1-[1-(4-Chloro-4′-{4-[2-(trifluoromethoxy)ethyl]piperazin-1-yl}[biphenyl]-2-yl)piperidin-3-yl]-5-(difluoromethyl)-1H-pyrazole-4-carboxylic acid hydrochloride (Enantiomer 2)], the EC50 came out at 0.0065 µM and the MEC was determined as 1.0 nM.
On the same counts, the results for `O=C(O)c1cnn(C2CCCN(c3cc(Cl)ccc3-c3ccc(C4CN(CCC(F)(F)F)C4)cc3)C2)c1C(F)F` (single isomer, unassigned; enantiomer 2) [Example 59, 1-(1-{4-Chloro-4′-[1-(3,3,3-trifluoropropyl)azetidin-3-yl][biphenyl]-2-yl}piperidin-3-yl)-5-(difluoromethyl)-1H-pyrazole-4-carboxylic acid hydrochloride (Enantiomer 2)] are 0.0087 µM and 3.0 nM.
For `O=C(O)c1cnn(C2CCCN(c3cc(Cl)ccc3-c3ccc(N4CCN(CC5(C(F)(F)F)CC5)CC4)cc3)C2)c1C(F)F` (single isomer, unassigned; enantiomer 2) [Example 40, 1-{1-[4-Chloro-4′-(4-{[1-(trifluoromethyl)cyclopropyl]methyl}piperazin-1-yl) [biphenyl]-2-yl]piperidin-3-yl}-5-(difluoromethyl)-1H-pyrazole-4-carboxylic acid hydrochloride (Enantiomer 2)], the EC50 is 0.0118 µM and the MEC amounted to 1.0 nM.
On the same counts, the results for `CC(C)C(=O)N1CCN(c2ccc(-c3ccc(Cl)cc3N3CCCC(n4ncc(C(=O)O)c4C(F)F)C3)cc2)CC1` (single isomer, unassigned; enantiomer 2) [Example 48, 1-{1-[4-Chloro-4′-(4-isobutyrylpiperazin-1-yl)[biphenyl]-2-yl]piperidin-3-yl}-5-(difluoromethyl)-1H-pyrazole-4-carboxylic acid (Enantiomer 2)] are 0.0075 µM and 3.0 nM.
The corresponding values for `CN1CCN(c2ncc(-c3ccc(Cl)cc3N3CCCC(n4ncc(C(=O)O)c4C(F)F)C3)cn2)CC1` (single isomer, unassigned; enantiomer 2) [Example 71, 1-(1-{5-Chloro-2-[2-(4-methylpiperazin-1-yl)pyrimidin-5-yl]phenyl}piperidin-3-yl)-5-(difluoromethyl)-1H-pyrazole-4-carboxylic acid hydrochloride (Enantiomer 2)] are 0.092 µM and 30.0 nM.
On the same counts, the results for `CN1CCN(c2ccc(-c3ccc(Cl)cc3N3CCCC(n4ncc(C(=O)O)c4C(F)F)C3)cc2)CC1` (single isomer, unassigned; enantiomer 1) [Example 1, 1-{1-[4-Chloro-4′-(4-methylpiperazin-1-yl)[biphenyl]-2-yl]piperidin-3-yl}-5-(difluoromethyl)-1H-pyrazole-4-carboxylic acid hydrochloride (Enantiomer 1)] are 0.0965 µM and 10.0 nM.
Take `CCN1CCN(c2ccc(-c3ccc(Cl)cc3N3CC(n4ncc(C(=O)O)c4C(F)F)CC(F)(F)C3)cc2)CC1` (single isomer, unassigned; enantiomer 2) [Example 53, 1-{1-[4-chloro-4′-(4-ethylpiperazin-1-yl)[biphenyl]-2-yl]-5,5-difluoropiperidin-3-yl}-5-(difluoromethyl)-1H-pyrazole-4-carboxylic acid hydrochloride (Enantiomer 2)]: the concentration for a half-maximal effect (EC50) stood at 0.034 µM and the MEC worked out at 10.0 nM.
On the same counts, the results for `O=C(O)c1cnn(C2CCCN(c3cc(Cl)ccc3-c3ccc(N4CCN(C5COC5)CC4)cc3)C2)c1C(F)F` (single isomer, unassigned; enantiomer 2) [Example 43, 1-(1-{4-Chloro-4′-[4-(oxetan-3-yl)piperazin-1-yl][biphenyl]-2-yl}piperidin-3-yl)-5-(difluoromethyl)-1H-pyrazole-4-carboxylic acid hydrochloride (Enantiomer 2)] are 0.0425 µM and 10.0 nM.
The corresponding values for `O=C(O)c1cnn(C2CCCN(c3cc(Cl)ccc3-c3ccc(N4CCN(C(=O)C5CC5)CC4)cc3)C2)c1C(F)F` (single isomer, unassigned; enantiomer 2) [Example 50, 1-(1-{4-Chloro-4′-[4-(3-cyclopropylcarbonyl)piperazin-1-yl][biphenyl]-2-yl}piperidin-3-yl)-5-(difluoromethyl)-1H-pyrazole-4-carboxylic acid (Enantiomer 2)] are 0.0019 µM and 0.3 nM.
Regarding `O=C(O)c1cnn(C2CCCN(c3cc(Cl)ccc3-c3ccc(N4CCN(CC5CC5(F)F)CC4)cc3)C2)c1C(F)F` (single isomer, unassigned; diastereomer 4) [Example 31, 1-{1-[4-Chloro-4′-(4-{[2,2-difluorocyclopropyl]methyl}piperazin-1-yl)[biphenyl]-2-yl]piperidin-3-yl}-5-(difluoromethyl)-1H-pyrazole-4-carboxylic acid hydrochloride (Diastereomer 4)], the EC50 amounted to 0.0051 µM and the MEC is listed as 1.0 nM.
The corresponding values for `CCN1CCN(c2ccc(-c3ccc(C(F)(F)F)cc3N3CCCC(n4ncc(C(=O)O)c4C(F)F)C3)cc2)CC1` (single isomer, unassigned; enantiomer 2) [Example 74, 5-(Difluoromethyl)-1-{1-[4′-(4-ethylpiperazin-1-yl)-4-(trifluoromethyl)[biphenyl]-2-yl]piperidin-3-yl}-1H-pyrazole-4-carboxylic acid hydrochloride (Enantiomer 2)] are 0.0795 µM and 10.0 nM.
Consider `CC(C)N1CCN(c2ccc(-c3ccc(Cl)cc3N3CCCC(n4ncc(C(=O)O)c4C(F)F)C3)cc2)CC1` (single isomer, unassigned; enantiomer 2) [Example 6, 1-{1-[4-Chloro-4′-(4-isopropylpiperazin-1-yl)[biphenyl]-2-yl]piperidin-3-yl}-5-(difluoromethyl)-1H-pyrazole-4-carboxylic acid (Enantiomer 2)], for which the EC50 is 0.0335 µM and the MEC was found to be 3.0 nM.
The corresponding values for `O=C(O)c1cnn(C2CCCN(c3cc(Cl)ccc3-c3ccc(N4CCN(C(=O)[C@H]5C[C@H]5F)CC4)cc3)C2)c1C(F)F` (single isomer, unassigned; stereoisomer 2) [Example 35] are 0.0113 µM and 2.0 nM.
On the same counts, the results for `CC(C)CN1CCN(c2ccc(-c3ccc(Cl)cc3N3CCCC(n4ncc(C(=O)O)c4C(F)F)C3)cn2)CC1` (single isomer, unassigned; enantiomer 2) [Example 62, 1-(1-{5-Chloro-2-[6-(4-isobutylpiperazin-1-yl)pyridin-3-yl]phenyl}piperidin-3-yl)-5-(difluoromethyl)-1H-pyrazole-4-carboxylic acid hydrochloride (Enantiomer 2)] are 0.0075 µM and 3.0 nM.
In the case of `CC(C)CC(=O)N1CCN(c2ccc(-c3ccc(Cl)cc3N3CCCC(n4ncc(C(=O)O)c4C(F)F)C3)cc2)CC1` (single isomer, unassigned; enantiomer 2) [Example 51, 1-(1-{4-Chloro-4′-[4-(3-methylbutanoyl)piperazin-1-yl][biphenyl]-2-yl}piperidin-3-yl)-5-(difluoromethyl)-1H-pyrazole-4-carboxylic acid (Enantiomer 2)], the EC50 was 0.0284 µM and the MEC came out at 3.0 nM.
The corresponding values for `O=C(O)c1cnn(C2CCCN(c3cc(Cl)ccc3-c3ccc(N4CCN(CCC(F)(F)F)CC4)cc3)C2)c1C(F)F` (single isomer, unassigned; enantiomer 2) [Example 23, 1-(1-{4-Chloro-4′-[4-(3,3,3-trifluoropropyl)piperazin-1-yl][biphenyl]-2-yl}piperidin-3-yl)-5-(difluoromethyl)-1H-pyrazole-4-carboxylic acid hydrochloride (Enantiomer 2)] are 0.001 µM and less than 0.3 nM.
